These results are taken from patent publication US4596875A, “Preparation of amides of 4-hydroxy-3-quinoline-carboxylic acid” (Roussel Uclaf, priority 1982, dated 1986).

The nature of assay [1]: Analgesic activity: acetic acid-provoked stretching test based on Koster et al. It counts as in vivo. As to conditions: Mus musculus; mice, oral, 30 minutes before intraperitoneal acetic acid (1% solution, 0.01 ml/g); fasted 24 hours; 15 minute observation; read-out: DA50 (dose which diminished the number of stretchings by 50% as compared to the controls). Here is the method:
The test was based on that of Koster et al [Fed. Proc., Vol. 1B (1959), p. 412] in which mice received an intraperitoneal injection of acetic acid to provoke repeated stretching and twisting movements which persist for more than 6 hours. An analgesic prevents or reduces this syndrome which is considered to be an exteriorization of a diffuse abdominal pain. A 1% solution of acetic acid in water was used and the dose […] the syndrome under these conditions was 0.01 ml/g or 100 mg/kg of acetic acid.
The test compound was orally administered to the mice 30 minutes before the acetic acid injection and the mice had been fasting for the previous 24 hours. The stretchings were counted for each mouse for a 15 minute observation period after the acetic acid injection and the dose which diminished the number of stretchings by 50% as compared to the controls (DA50) was 1.2 and 0.3 mg/kg for the compounds of Example 2 and 10 respectively.

The nature of assay [2]: Anti-inflammatory activity: edema test provoked by carraghenin. It counts as in vivo. To be noted: Rattus norvegicus; male rats 130 to 150 g, oral, simultaneous with 0.05 ml of 1% carraghenin in rear paw; paw volume at 2,4,6,8 and 24 hours; read-out: DA50 (dose which reduced the edema by 50%). How it is done:
The anti-inflammatory activity was determined by the edema test provoked by carraghenin in male rats weighing about 130 to 150 g which received 0.05 ml of sterile suspension of 1% carraghenin into the tibiotarsien articulation of the rear paw. Simultaneously the test product in a suspension of 0.25% carboxymethyl cellulose and 0.02% of Tween was orally administered. The volume of the paw was measured before the test and then 2,4,6,8 and 24 hours later. The intensity of inflammation was maximum at 4 to 6 hours after the injection of carraghenin and the differences in paw volume of controls and treated animals were evidence of anti-inflammatory action. The DA50 dose which is that which reduced the edema by 50% was 15 and 12 mg/kg for the products of Examples 2 and 10 respectively.

With `CC(O)c1nc2c(C(F)(F)F)cccc2c(O)c1C(=O)Nc1nccs1` (stereo not shown) [Example 2, 4-hydroxy-2-(1-hydroxyethyl)-N-(2-thiazolyl)-8-trifluoromethyl-3-quinoline-carboxamide], the ED50 stood at 1.2 mg/kg in assay [1] and 15 mg/kg in assay [2].
The like results for `CCC(O)c1nc2c(C(F)(F)F)cccc2c(O)c1C(=O)Nc1nccs1` (stereo not shown) [Example 10, 4-hydroxy-2-(1-hydroxy-propyl)-N-(2-thiazolyl)-8-trifluoromethyl-3-quinoline-carboxamide] were, in that order, 0.3 mg/kg and 12 mg/kg.
